Test results reported in ChEMBL document CHEMBL5244227, “Applications of fluorine-containing amino acids for drug design” (Eur J Med Chem, 2020).
pEC50, pIC50, pKi: −log10 of the molar value. One block for each compound: values may come before it.

How the values were obtained:
Plasmodium berghei = experiment: Antimalarial activity against Plasmodium berghei infected in mouse model infected with assessed as reduction in parasitemia at 100 mg/kg; assay type: functional; parameters: scale not given: the % may be the effect or the level left
[1] = In vivo inhibition of BACE-1 in wild type Hartley guinea pig assessed as reduction in amyloid beta level in cortex at 30 mg/kg, po administered twice daily for 2.5 days; assay type: functional; details: Cavia porcellus, 60 h, time 2.5 day
[2] = In vivo inhibition of BACE-1 in wild type Hartley guinea pig assessed as reduction in amyloid beta level in cerebrospinal fluid at 30 mg/kg, po administered twice daily for 2.5 days; assay type: functional; details: Cavia porcellus, 60 h, time 2.5 day
[3] = Oral bioavailability in rat; assay type: ADME, organism-based; details: in vivo
Hepatitis C virus = experiment: Antiviral activity against HCV; assay type: functional, organism-based, Hepacivirus hominis
[4] = target: ATP-dependent translocase ABCB1 (Homo sapiens, UniProt P08183); experiment: Substrate activity at human P-gp assessed as transport ratio
Chain of ATP-dependent translocase ABCB1 (P08183 whole entry): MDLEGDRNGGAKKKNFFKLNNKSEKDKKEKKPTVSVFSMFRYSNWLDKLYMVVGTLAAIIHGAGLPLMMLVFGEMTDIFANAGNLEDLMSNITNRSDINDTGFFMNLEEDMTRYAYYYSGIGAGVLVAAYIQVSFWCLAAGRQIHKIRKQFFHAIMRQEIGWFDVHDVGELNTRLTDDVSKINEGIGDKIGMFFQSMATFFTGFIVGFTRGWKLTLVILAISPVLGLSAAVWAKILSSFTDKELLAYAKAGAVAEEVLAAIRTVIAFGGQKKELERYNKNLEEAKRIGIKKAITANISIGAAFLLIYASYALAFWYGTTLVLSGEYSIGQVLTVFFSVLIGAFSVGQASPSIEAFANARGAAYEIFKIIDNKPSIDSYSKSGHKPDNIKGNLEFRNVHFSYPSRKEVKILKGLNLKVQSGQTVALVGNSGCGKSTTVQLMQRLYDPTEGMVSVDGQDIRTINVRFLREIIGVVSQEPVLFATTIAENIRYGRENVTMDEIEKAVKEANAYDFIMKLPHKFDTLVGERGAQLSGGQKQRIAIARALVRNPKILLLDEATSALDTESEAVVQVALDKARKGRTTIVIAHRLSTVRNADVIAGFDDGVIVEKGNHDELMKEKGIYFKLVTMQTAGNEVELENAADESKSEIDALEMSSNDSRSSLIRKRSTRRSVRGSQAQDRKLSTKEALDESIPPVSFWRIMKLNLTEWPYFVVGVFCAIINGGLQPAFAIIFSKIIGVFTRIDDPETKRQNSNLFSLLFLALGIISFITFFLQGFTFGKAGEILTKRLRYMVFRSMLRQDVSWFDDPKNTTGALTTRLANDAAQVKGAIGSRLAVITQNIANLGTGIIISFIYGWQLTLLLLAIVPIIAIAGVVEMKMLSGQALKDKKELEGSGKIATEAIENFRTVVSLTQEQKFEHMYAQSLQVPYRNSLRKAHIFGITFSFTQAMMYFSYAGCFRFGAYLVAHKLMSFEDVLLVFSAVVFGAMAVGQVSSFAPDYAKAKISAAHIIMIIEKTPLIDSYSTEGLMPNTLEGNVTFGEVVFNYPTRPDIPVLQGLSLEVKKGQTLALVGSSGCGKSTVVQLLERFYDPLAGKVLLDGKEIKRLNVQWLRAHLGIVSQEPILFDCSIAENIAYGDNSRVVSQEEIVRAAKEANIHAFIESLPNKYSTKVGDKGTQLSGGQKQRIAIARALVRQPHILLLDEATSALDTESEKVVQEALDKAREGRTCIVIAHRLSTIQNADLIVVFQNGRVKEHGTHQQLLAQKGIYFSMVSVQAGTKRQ

[5] = Inhibition of HCV NS3/4A protease; parameters: species or system Hepacivirus hominis
[6] = Binding affinity to CGRP (unknown origin); parameters: species or system Homo sapiens

Compound: CC1CCc2c([nH]c3ccccc23)C2(N1)C(=O)Nc1ccc(Cl)cc12 (stereo not given)
Activity (Plasmodium berghei): 96%

Compound: CC(=O)N[C@@H](Cc1cc(F)cc(F)c1)[C@H](O)CNC1(c2cccc(C(C)(C)C(F)F)c2)CC1
inhibition in vivo at 30 mg/kg [1]: 28% | inhibition in vivo at 30 mg/kg [2]: 32%

Compound: COc1ccc2c(O[C@@H]3C[C@H]4C(=O)N[C@]5(P(=O)(O)Cc6ccccc6)C[C@H]5/C=C/CCCCC[C@H](NC(=O)OC5CCCC5)C(=O)N4C3)cc(-c3csc(NC(C)C)n3)nc2c1
pEC50 (Hepatitis C virus): 8.00

Compound: C[C@@]1(c2cc(F)cc(F)c2)CN([11CH3])C2(CCCC2)C(=O)N1CC(=O)Nc1ccc2c(c1)C[C@@]1(C2)C(=O)Nc2ncccc21
Ratio [4]: 1.7

Compound: COc1ccc2c(O[C@@H]3C[C@H]4C(=O)N[C@]5(C(=O)NS(=O)(=O)C6CC6)C[C@H]5/C=C\CCCCN(C)C(=O)[C@@H]4C3)cc(-c3nc(C(C)C)cs3)nc2c1C
pEC50 [5]: 8.09

Compound: O=C(CN1C(=O)C2(CCCC2)NC[C@@H]1c1cc(F)cc(F)c1)Nc1ccc2c(c1)C[C@@]1(C2)C(=O)Nc2ncccc21
pKi [6]: 9.24

Compound: O=C(CN1C(=O)C2(CCCC2)NC[C@@H]1c1ccccc1)Nc1ccc2c(c1)C[C@@]1(C2)C(=O)Nc2ncccc21
pKi [6]: 10.17

Compound: COc1ccc2c(O[C@@H]3C[C@H]4C(=O)N[C@]5(P(=O)(O)Cc6c(F)cccc6F)C[C@H]5CCCCCCC[C@H](NC(=O)OC5CCCC5)C(=O)N4C3)cc(-c3csc(NC(C)C)n3)nc2c1Cl [GS-9256]
pIC50 [5]: 8.40 | pKi [5]: 10.05 | pEC50 (Hepatitis C virus): 7.70

Compound: O=C(CN1C(=O)C2(CCCC2)NC[C@H]1c1cc(F)cc(F)c1)Nc1ccc2c(c1)C[C@@]1(C2)C(=O)Nc2ncccc21 [MK3207]
pKi [6]: 10.77

Compound: NCCCC[C@H](NC(=O)[C@@H](Cc1cc(Br)c(O)c(Br)c1)NC(=O)N1CCC(N2Cc3ccccc3NC2=O)CC1)C(=O)N1CCN(c2ccncc2)CC1 [OLCEGEPANT]
pKi [6]: 11.00

Results, then the compound that gave them:

bioavailability [3]: 0.5%
Compound: C=C[C@@H]1C[C@]1(NC(=O)[C@@H]1C[C@@H](Oc2cc(-c3csc(NC(C)C)n3)nc3cc(OC)ccc23)CN1C(=O)[C@@H](NC(=O)OC1CCCC1)C(C)(C)C)P(=O)(O)Cc1ccccc1

pEC50 [5]: 4.82
Compound: COc1ccc2c(O[C@@H]3C[C@H]4C(=O)N[C@]5(C(=O)NS(=O)(=O)C6CC6)C[C@@]5(F)/C=C\CCCCN(C)C(=O)[C@@H]4C3)cc(-c3nc(C(C)C)cs3)nc2c1C

pIC50 [5]: 6.01
Compound: COc1cnc(O[C@@H]2C[C@@H](C(=O)N[C@@H](CC(F)F)C(=O)NS(=O)(=O)C3CC3)N(C(=O)C(NC(=O)OC(C)(C)C)C(C)(C)C)C2)c2cc(Cl)ccc12 (single isomer, unassigned)

pIC50 [5]: 7.77
Compound: COc1cnc(O[C@@H]2C[C@@H](C(=O)N[C@]3(C(=O)NS(=O)(=O)C4CC4)C[C@H]3C(F)(F)F)N(C(=O)C(NC(=O)OC(C)(C)C)C(C)(C)C)C2)c2cc(Cl)ccc12 (single isomer, unassigned)

pIC50 [5]: 5.51
Compound: CC[C@H](NC(=O)[C@@H]1C[C@@H](Oc2ncc(OC)c3ccc(Cl)cc23)CN1C(=O)C(NC(=O)OC(C)(C)C)C(C)(C)C)C(=O)NS(=O)(=O)C1CC1 (single isomer, unassigned)

pIC50 [5]: 7.89
Compound: COc1cnc(O[C@@H]2C[C@@H](C(=O)N[C@]3(C(=O)NS(=O)(=O)C4CC4)C[C@H]3C)N(C(=O)C(NC(=O)OC(C)(C)C)C(C)(C)C)C2)c2cc(Cl)ccc12 (single isomer, unassigned)

pIC50 [5]: 9.00
Compound: COc1cnc(O[C@@H]2C[C@@H](C(=O)N[C@]3(C(=O)NS(=O)(=O)C4CC4)C[C@H]3CC(F)F)N(C(=O)C(NC(=O)OC(C)(C)C)C(C)(C)C)C2)c2cc(Cl)ccc12 (single isomer, unassigned)
